Assay results: patent US20120305840A1, “CARBON DIOXIDE ABSORBING SOLUTION” (Kabushiki Kaisha Toshiba, priority 2009, published 2012)

Legend:
[1] = Volatility: decreased amount of absorbent by 1H-NMR after heating; format: physicochemical; details: 60 minutes at 140° C.
Description: According to the decreased amount, the volatility was evaluated. The less the decreased amount was, the less volatile the absorbent was regarded as. In general, if containing a less volatile absorbent, the absorbing solution can be repeatedly regenerated without decrease of the absorbent content.

[2] = Precipitation in the absorbing solution after absorbing carbon dioxide; format: physicochemical

Row | Compound | volatility of the absorbent (in words) [1] | precipitation in the absorbing solutions on absorbing carbon dioxide to form products [2]
1 | O=C([O-])C1CNC1.[K+] [absorbent 1, potassium 1-aza-azetidine-3-carboxylate] | hardly volatilize | did not precipitate
2 | O=C([O-])C1CCCN1.[K+] (stereo not shown) [absorbent 2, pyrrolidine-2-carboxylic acid salt] | hardly volatilize | did not precipitate
